Consider 1 substance from US20060148055A1, “Oxidised fragments of apolioprotein B and their uses” (priority 1997, published 2006).

No end group written: not given here. MDA = malondialdehyde

For the experiment, the system named is U937 monocytes. The experiment in a line: Inhibition of oxidised LDL uptake by peptides in monocytes in cell culture (DiI-labelled LDL fluorescence). Type of experiment: cell-based. Conditions: versus oxidised LDL alone, ANOVA followed by Tukey post test. On the procedure:
An experiment was performed to determine in cell culture if uptake of oxidised LDL by U937 monocytes could be inhibited by the peptides according to SEQ ID NOs:1-3, both in their native state and conjugated to MDA.
LDL (1 mg/ml) was labelled with 1,1′-dioctadecyl-3,3,3′,3′,-tetramethylindocarbocyanine perchlorate (DiI) (300 μg/mg LDL) by incubation overnight at 37° C. in the dark under nitrogen. Excess DiI was removed by desalting into PBS (0.01 M phosphate buffer, 0.137 M sodium chloride, pH 7.4) through a PD-10 column.
U937 monocytes were maintained in RPMI media supplemented with heat inactivated fetal calf serum (10%) (FCS) and penicillin/streptomycin (1%). Cells were ‘starved’ of lipids by culturing in RMPI supplemented with penicillin/streptomycin (1%) in the absence of serum, and plated at 1 million cells per well in 6 well plates, 4 hours before treatment with DiI labelled LDL. […] Non-starved cells were also plated at 1 million cells per well in 6 well plates, 4 hours before treatment with DiI labelled LDL. Starved and non-starved cells were treated with DiI labelled LDL (oxidized) (50 μg) in the presence or absence of excess unlabelled peptide (native or MDA-conjugated) (500 μg) as competitor. […] Fluorescence was read at Ex 520 nm, Em 590 nm using a Molecular Devices Gemini XS microplate fluorimeter. […]

With “RB1: peptide SEQ ID NO: 1 (ALQYKLEGTTR) MDA-conjugated (ALQYK(MDA)LEGTTR)”, the “inhibition of uptake of oxidised LDL by monocytes (in words)” value is reported as “inhibition is statistically significant”. Besides, for the setting “listed as peptide corresponding to SEQ ID NO:1 conjugated to MDA”, the “inhibition of uptake of oxidised LDL by monocytes (in words)” value is on record as “inhibits uptake”.
